These results are taken from US20250276081A1, “Mucin-Active Proteases and Methods of Use” (priority 2022, published 2025).

Data set [1] in a line: In vivo biodistribution of IRdye 800CW-labeled StcE. The following applies: 0.25 mg/kg I.P.
The subject of data set [2] is mixed MCF10A^MUC1,±HER2 cells. The experiment in a line: Mixed cell suspension survival assay under anchorage-free conditions. Format: cell-based. The following applies: 1 nM, 72 h. On the procedure: For mixed cell assays, MUC1ΔCT was induced with 200 ng/ml doxycycline for 24 h. A 1:1 mixture of 2.5×10^5 MCF10A^MUC1 and MCF10AMUC1, HER2 cells were seeded per well in a 24-well ultra-low attachment plate in 0.80 mL of complete media. 200 ng/ml doxycycline, 1 nM StcE, and 1 nM αHER2-eStcE were added as appropriate. The plate was incubated at 37° C., 5% CO2, 125 rpm. At t=0, 24, 48, and 72 h, cells were spun down at 350× g for 5 min, resuspended in 100 μL of PBS with 0.1% benzonase, and incubated at room temperature for 15 min. Cells were then resuspended in 200 μL of enzyme-free cell dissociation buffer and stained with Alexa Fluor 647 anti-human CD340 (erbB2/HER-2) antibody (24D2 clone) (BioLegend) and 500 nM Sytox Green Nucleic Acid Stain (Thermo Fisher Scientific) for 20 min at 4° C., according to manufacturer recommendations, prior to analysis using a BD Accuri C6 plus. All flow cytometry data were analyzed using FlowJo v. 10.0 (TreeStar).

The subject of data set [3] is Siglec-7 ligand (K562, CCRF-CEM, CCRF-HSB-2 cells). Description: Siglec-7-Fc flow cytometry of leukemia cell lines. The format is cell-based. The following applies: 50 nM StcE, 1 h. The procedure:
CD43 and Siglec-7-Fc flow cytometry. 1×10^6 K562, CCRF-CEM, or CCRF-HSB-2 cells growing in log phase were harvested, resuspended in 1 mL of serum-free RPMI, and treated with either vehicle or 50 nM StcE for 1 h. Cells were subsequently spun down at 600× g and washed twice in PBS. Cells were then resuspended in FACS buffer (0.5% BSA in PBS) at 1×10^6 cells/mL and aliquoted into a V-bottom 96-well plate (Corning) at 1×10^5 cells/well. For staining, a precomplex solution of 1 μg/mL Siglec-7-Fc (R&D Systems) and 1 μg/mL Alexa Fluor 488-antihFc was made up in FACS buffer and incubated on ice for 1 h. Alexa Fluor 647 CD43/sialophorin antibody (MEM-59 clone) (Novus Biologicals) was subsequently added to the precomplex solution prior to staining. Cells were stained in 100 μL of staining solution for 30 min, washed twice with FACS buffer, and analyzed by flow cytometry using a BD Accuri C6 plus.
On the technique in general: A flow cytometer gives signals particle by particle.

Consider “StcE: secreted protease of C1 esterase inhibitor, zinc metalloprotease pan mucinase from E. coli O157:H7; SEQ ID NO:1”, for which the “Time remaining in circulation” value in data set [1] is “at least 20 hours”. Besides, the “Suspension survival in mixed HER2^+ and HER2- populations” value in data set [2] was “cell death in both populations”. The Siglec-7 ligand residency entry in data set [3] was “loss of cell surface CD43 and overall Siglec-7 ligand residency”.
